We go through 6 compounds from PMC5664514 (Proceedings of the National Academy of Sciences of the …, 2017).

Series [1] has as its system HEK/APPsw cells. Nature of the series: Western blot of APP metabolites, ADAM10, BACE1, BDNF in HEK/APPsw cells. The format is cell-based, human. The settings on record: 10 μM, vs DMSO.
For series [2], the system named is BDNF. The settings on record: 0.8–5 mM; cited from earlier work.
Series [3] deals with APP-PS1-21 AD mice. As to conditions: 2 mg/d orally, 10-mo-old mice; cited from earlier work.
Series [4] has as its system HEK/APPsw cells. The series can be described thus: CellTiter-Glo luminescent cell viability assay. The format is cell-based. As to conditions: 10 μM, 48 h.
Series [5] concerns Tg2576 AD mice. The settings on record: 25 mg/kg and 50 mg/kg; cited from earlier work.
For series [6], the system named is BDNF. As to conditions: cited from earlier work.
The test system of series [7] is aged APP/PS1 mice. The settings on record: 50 mg/kg i.p.; cited from earlier work.
Series [8] relates to Tg2576 AD mice. As to conditions: 200 mg/kg; cited from earlier work.
The subject of series [9] is ADAM10. As to conditions: via HDAC2/3 mechanism involving USF-1; cited from earlier work.

On to `C=C(C)[C@@H](CC=C(C)C)C[C@@]12C[C@@H](CC=C(C)C)C(C)(C)[C@@](CC=C(C)C)(C(=O)C(C(=O)c3ccc(O)c(O)c3)=C1O)C2=O` [garcinol], for which, in series [1], the “BACE1 protein level, change (Western blot)” value is on record as 54.3%; the “mature APP, change (Western blot)” value is given as 37.9%; the “sAPPα, change (Western blot)” value is given as −33.6%.

For `CC(O)CC(=O)O` (stereo not drawn) [β-hydroxybutyrate], the BDNF expression entry in series [2] is listed as “increase BDNF expression”.

With `O=C(CCCCCCC(=O)Nc1ccccc1)NO` [SAHA, suberoylanilide hydroxamic acid], in series [3], the Aβ plaques result was “no significant differences”, the H4K12 acetylation entry is recorded as “increased H4K12 acetylation” and the spatial memory entry is given as “partial improvement of spatial memory”. In addition, in series [4], the cell viability entry is “significantly reduce cell viability”. Besides, in [5], the fear conditioning behavior entry was “not behaviorally” and the “synaptic plasticity (long-term potentiation)” value is listed as “positive effects on synaptic plasticity”. The BDNF gene expression result in [6] is recorded as “increase BDNF gene expression”. For the same compound, the cognitive behavior entry in [7] is on record as “improvement of cognitive behavior”.

As for `O=C([O-])CCCc1ccccc1.[Na+]` [sodium 4-phenylbutyrate], in [8], the memory entry is “positive effects on memory”.

With `CCC(=O)CCCCC[C@@H]1NC(=O)[C@H]2CCCCN2C(=O)[C@H]([C@@H](C)CC)NC(=O)[C@H](Cc2cn(OC)c3ccccc23)NC1=O` [apicidin], in series [9], the ADAM10 expression entry is listed as “up-regulating the expression of ADAM10”.

As to `O=C(/C=C/C#Cc1cccc(NS(=O)(=O)c2ccccc2)c1)NO` [oxamflatin], the cell viability result in series [4] is “significantly reduce cell viability”.
